# Experiments:
# [1] = test system: Zymosan-induced IL-8 production in human neutrophils; experiment: Zymosan-induced IL-8 production; type: cell-based; settings: Neutrophil, 18 hours
# Experimental: Zymosan A, or the heat-killed yeast Saccharomyces cerevisiae, binds to the adhesion molecule Mac-1 on the neutrophil surface and triggers phagocytosis, cell activation and IL-8 production. Zymosan-induced IL-8 production was measured as previously described (Au et al., 1998, Brit. J. Pharm., 123:1260-1266) with the following modifications. Human neutrophils were purified as described above, plated in 96-well tissue culture plates at 3×10^5 cells/well in complete medium, treated with compounds at 10, 2, 0.4, 0.08, 0.016, 0.0032, 0.00064, and 0 μM in duplicate in a final DMSO concentration of 0.1% for 1 hour at 37° C. 5% CO2. Neutrophils were then stimulated with unopsonized, boiled Zymosan A (Sigma) at 2.5×10^5 particles/well for 18 hours. Supernatants were harvested and tested for IL-8 by ELISA (R&D Systems).
# [2] = test system: moderate to severe plaque-type psoriasis; experiment: Phase 2 randomized placebo-controlled study in moderate-to-severe psoriasis; type: in vivo, human
# Experimental: This phase 2, multicenter, randomized, double-blind, placebo-controlled, parallel-group, dose-comparison study evaluated the efficacy and safety of Compound A in subjects with moderate to severe plaque-type psoriasis who were candidates for systemic therapy. This study included a 12-week treatment phase followed by a 4-week observational follow-up phase. A total of 260 subjects were randomized to receive Compound A 20 mg BID, Compound A 20 mg QD, or placebo for 12 weeks. The primary endpoint for this study was the proportion of subjects treated with Compound A who achieved a 75% reduction in Psoriasis Area and Severity Index score (“PASI-75”) at week 12/last treatment in reference to the baseline visit. Last treatment is defined as the last PASI assessment completed during the 12-week treatment phase.
# [3] = target: T1, PDE6 from bovine retinal rod outer segments (Bos taurus, UniProt P11541+P23439); experiment: PDE6 enzyme assay; type: biochemical
# T1 construct: PDE6 from bovine retinal rod outer segments; from tissue; host or cells: bovine retinal rod outer segments
# T1 sequence (P11541 2-856 limits assumed): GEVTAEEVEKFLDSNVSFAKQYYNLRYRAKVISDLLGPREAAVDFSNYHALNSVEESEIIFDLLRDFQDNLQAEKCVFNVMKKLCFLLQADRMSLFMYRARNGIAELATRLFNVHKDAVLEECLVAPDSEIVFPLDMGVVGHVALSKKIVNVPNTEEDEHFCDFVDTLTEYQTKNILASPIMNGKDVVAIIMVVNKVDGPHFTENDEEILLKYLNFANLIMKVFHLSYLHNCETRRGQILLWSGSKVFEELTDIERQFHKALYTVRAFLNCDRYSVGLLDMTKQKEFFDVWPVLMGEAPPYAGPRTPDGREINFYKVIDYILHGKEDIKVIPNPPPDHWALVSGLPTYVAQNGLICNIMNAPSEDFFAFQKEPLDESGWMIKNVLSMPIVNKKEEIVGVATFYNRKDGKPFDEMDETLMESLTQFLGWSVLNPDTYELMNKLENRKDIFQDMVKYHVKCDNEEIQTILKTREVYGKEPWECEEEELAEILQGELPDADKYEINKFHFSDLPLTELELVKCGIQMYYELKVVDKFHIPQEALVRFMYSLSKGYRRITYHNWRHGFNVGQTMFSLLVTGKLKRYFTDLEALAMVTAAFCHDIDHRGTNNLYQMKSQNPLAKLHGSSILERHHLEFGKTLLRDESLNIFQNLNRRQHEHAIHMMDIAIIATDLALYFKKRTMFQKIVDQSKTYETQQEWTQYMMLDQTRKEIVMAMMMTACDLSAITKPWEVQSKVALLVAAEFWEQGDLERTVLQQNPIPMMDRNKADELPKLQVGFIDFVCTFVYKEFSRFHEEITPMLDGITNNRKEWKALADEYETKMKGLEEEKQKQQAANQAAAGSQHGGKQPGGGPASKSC
# T1 sequence (P23439 2-850 limits assumed): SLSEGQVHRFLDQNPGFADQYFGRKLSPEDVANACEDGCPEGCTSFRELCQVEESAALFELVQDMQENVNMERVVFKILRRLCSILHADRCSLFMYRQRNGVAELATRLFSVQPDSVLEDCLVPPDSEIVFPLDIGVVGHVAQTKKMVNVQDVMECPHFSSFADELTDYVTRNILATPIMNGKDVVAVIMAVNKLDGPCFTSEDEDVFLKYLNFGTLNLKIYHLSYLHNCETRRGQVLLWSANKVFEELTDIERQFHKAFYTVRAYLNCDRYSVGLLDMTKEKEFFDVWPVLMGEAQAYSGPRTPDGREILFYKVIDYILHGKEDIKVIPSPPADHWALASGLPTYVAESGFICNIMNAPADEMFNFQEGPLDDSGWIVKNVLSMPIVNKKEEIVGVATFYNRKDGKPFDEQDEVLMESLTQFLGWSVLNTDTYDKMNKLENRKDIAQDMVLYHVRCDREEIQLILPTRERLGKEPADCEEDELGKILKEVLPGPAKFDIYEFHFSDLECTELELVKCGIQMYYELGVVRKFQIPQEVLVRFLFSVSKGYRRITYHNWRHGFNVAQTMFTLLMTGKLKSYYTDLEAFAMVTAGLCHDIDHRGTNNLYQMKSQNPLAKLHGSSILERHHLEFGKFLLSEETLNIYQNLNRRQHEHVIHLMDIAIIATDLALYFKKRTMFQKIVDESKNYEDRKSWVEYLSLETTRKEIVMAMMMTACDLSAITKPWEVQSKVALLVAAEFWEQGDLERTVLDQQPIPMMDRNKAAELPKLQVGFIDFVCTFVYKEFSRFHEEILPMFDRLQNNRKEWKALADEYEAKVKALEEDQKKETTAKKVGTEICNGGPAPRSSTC
# PDE4 (from U937 cells) = experiment: PDE4 (U937 cell-derived) enzyme assay; type: biochemical, human; settings: 1 μM cAMP
# human PDE2 = human PDE2 (Homo sapiens, UniProt O00408); experiment: PDE2 enzyme assay; type: biochemical
# [4] = 20 mg BID, week 12/last treatment
# human PDE2, sequence (O00408 whole entry): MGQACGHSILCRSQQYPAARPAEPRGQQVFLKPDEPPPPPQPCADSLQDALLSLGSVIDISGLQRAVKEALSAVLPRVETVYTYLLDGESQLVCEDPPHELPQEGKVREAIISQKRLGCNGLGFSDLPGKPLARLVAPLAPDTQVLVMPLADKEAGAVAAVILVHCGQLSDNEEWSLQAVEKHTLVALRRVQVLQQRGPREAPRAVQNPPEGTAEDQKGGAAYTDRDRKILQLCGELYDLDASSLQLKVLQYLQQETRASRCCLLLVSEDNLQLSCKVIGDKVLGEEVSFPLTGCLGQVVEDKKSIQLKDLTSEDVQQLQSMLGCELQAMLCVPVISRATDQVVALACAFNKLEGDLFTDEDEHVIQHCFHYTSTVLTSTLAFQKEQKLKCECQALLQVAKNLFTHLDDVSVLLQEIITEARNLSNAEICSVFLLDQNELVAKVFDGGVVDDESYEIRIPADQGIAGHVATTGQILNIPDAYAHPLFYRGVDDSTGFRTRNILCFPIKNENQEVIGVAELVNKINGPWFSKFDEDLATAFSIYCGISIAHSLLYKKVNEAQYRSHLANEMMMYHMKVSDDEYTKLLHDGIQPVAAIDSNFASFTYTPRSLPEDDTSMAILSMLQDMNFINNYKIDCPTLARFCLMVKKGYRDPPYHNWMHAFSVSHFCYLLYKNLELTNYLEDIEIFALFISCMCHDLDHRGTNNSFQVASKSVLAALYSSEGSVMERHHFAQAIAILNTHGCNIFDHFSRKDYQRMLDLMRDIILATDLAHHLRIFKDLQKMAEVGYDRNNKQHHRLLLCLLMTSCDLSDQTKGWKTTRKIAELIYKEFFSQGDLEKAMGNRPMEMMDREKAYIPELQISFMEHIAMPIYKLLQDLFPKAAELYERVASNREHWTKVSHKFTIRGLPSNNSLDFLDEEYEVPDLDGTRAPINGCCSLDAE
smiles,measurement,setting,value
"CCOc1cc(C(CS(C)(=O)=O)N2C(=O)c3cccc(NC(C)=O)c3C2=O)ccc1OC (single isomer, unassigned; (+)) [Compound A, (+)-2-[1-(3-ethoxy-4-methoxyphenyl)-2-methylsulfonylethyl]-4-acetylaminoisoindoline-1,3-dione]",IC50,[1],0.094 µM
same,psoriasis flare during the observational follow-up period,"[2]; 20 mg BID group, 4-week follow-up",No subjects
same,study drug-related serious adverse events,"[2]; 20 mg BID or 20 mg QD, 12 weeks",No study drug-related serious adverse events
same,mean decrease in PASI from baseline,[2]; [4],52%
same,proportion of subjects achieving PASI-50,[2]; [4],57%
same,proportion of subjects achieving PASI-90,[2]; [4],14%
same,proportion of subjects achieving PASI-75,"[2]; 20 mg BID, week 12/last treatment, P=0.023 vs placebo",24%
same,tolerability and safety,[2]; 12 weeks of treatment,well tolerated and safe
same,PDE Specificity Ratio PDE4/PDE6,[3]; from Table 1 data,>40000 fold
same,inhibition at 10 µM,[3]; read-out: PDE6 (% inhib at 10 μM),-6%
same,IC50,PDE4 (from U937 cells),0.0735 µM
same,PDE Specificity Ratio PDE4/PDE2,human PDE2; from Table 1 data,>10000 fold
same,inhibition at 10 µM,human PDE2; read-out: PDE2 (% inhib at 10 μM),6%

# Reference: patent US8629173B2, “Solid forms comprising (+)-2-[1-(3-ethoxy-4-methoxyphenyl)-2-methylsulfonylethyl]-4-acetylaminoisoindoline-1,3-dione, compositions thereof, and uses thereof” (Celgene Corporation, priority 2002, dated 2014)
